According to the CheMixHub viscosity set:
± gives the uncertainty stated by the source.

Assay: xn = mol fraction of the nth substance listed
Conditions: 101.33 kPa

CCCCN(CCCC)CCCC + CCO
viscosity [mPa·s]
Conditions | 298.15 K | 303.15 K | 308.15 K | 313.15 K | 318.15 K | 323.15 K
x1 = 0.0992 | – | 1.26 ± 0.076 | – | 1.084 ± 0.066 | – | 0.951 ± 0.057
x1 = 0.1034 | 1.393 ± 0.084 | – | 1.17 ± 0.071 | – | 1.011 ± 0.061 | –
x1 = 0.1456 | 1.458 ± 0.088 | – | 1.225 ± 0.074 | – | 1.06 ± 0.064 | –
x1 = 0.1561 | – | 1.334 ± 0.081 | – | 1.151 ± 0.07 | – | 1.015 ± 0.061
x1 = 0.1969 | – | 1.357 ± 0.082 | – | 1.174 ± 0.071 | – | 1.035 ± 0.063
x1 = 0.2099 | 1.508 ± 0.091 | – | 1.267 ± 0.077 | – | 1.094 ± 0.066 | –
x1 = 0.2529 | 1.52 ± 0.092 | 1.371 ± 0.083 | 1.276 ± 0.077 | 1.183 ± 0.071 | 1.098 ± 0.066 | 1.04 ± 0.063
x1 = 0.2945 | – | 1.367 ± 0.083 | – | 1.18 ± 0.071 | – | 1.033 ± 0.062
x1 = 0.3036 | 1.52 ± 0.092 | – | 1.274 ± 0.077 | – | 1.091 ± 0.066 | –
x1 = 0.3531 | 1.511 ± 0.091 | – | 1.265 ± 0.076 | – | 1.078 ± 0.065 | –
x1 = 0.3639 | – | 1.349 ± 0.082 | – | 1.163 ± 0.07 | – | 1.012 ± 0.061
x1 = 0.3986 | 1.501 ± 0.091 | 1.341 ± 0.081 | 1.255 ± 0.076 | 1.153 ± 0.07 | 1.065 ± 0.064 | 1 ± 0.06
x1 = 0.4508 | 1.488 ± 0.09 | 1.325 ± 0.08 | 1.242 ± 0.075 | 1.137 ± 0.069 | 1.049 ± 0.063 | 0.982 ± 0.059
x1 = 0.4951 | 1.477 ± 0.089 | – | 1.231 ± 0.074 | – | 1.036 ± 0.063 | –
x1 = 0.503 | – | 1.309 ± 0.079 | – | 1.122 ± 0.068 | – | 0.967 ± 0.058
x1 = 0.5448 | 1.467 ± 0.089 | – | 1.221 ± 0.074 | – | 1.024 ± 0.062 | –
x1 = 0.5537 | – | 1.294 ± 0.078 | – | 1.11 ± 0.067 | – | 0.954 ± 0.058
x1 = 0.601 | 1.458 ± 0.088 | – | 1.211 ± 0.073 | – | 1.012 ± 0.061 | –
x1 = 0.6426 | – | 1.267 ± 0.077 | – | 1.09 ± 0.066 | – | 0.936 ± 0.057
x1 = 0.6648 | 1.448 ± 0.088 | – | 1.199 ± 0.072 | – | 0.998 ± 0.06 | –
x1 = 0.7126 | 1.441 ± 0.087 | – | 1.19 ± 0.072 | – | 0.988 ± 0.06 | –
x1 = 0.7382 | – | 1.249 ± 0.075 | – | 1.067 ± 0.064 | – | 0.915 ± 0.055
x1 = 0.7934 | 1.424 ± 0.086 | – | 1.173 ± 0.071 | – | 0.967 ± 0.058 | –
x1 = 0.8711 | – | 1.207 ± 0.073 | – | 1.027 ± 0.062 | – | 0.876 ± 0.053
x1 = 0.9196 | – | 1.186 ± 0.072 | – | 1.012 ± 0.061 | – | 0.861 ± 0.052
x1 = 0.9232 | 1.391 ± 0.084 | – | 1.138 ± 0.069 | – | 0.928 ± 0.056 | –
x1 = 0.9604 | – | 1.176 ± 0.071 | – | 1.002 ± 0.061 | – | 0.851 ± 0.051
